Data from ChEMBL document CHEMBL4038324, “Amidoalkylindoles as Potent and Selective Cannabinoid Type 2 Receptor Agonists with in Vivo Efficacy in a Mouse Model of Multiple Sclerosis” (J Med Chem, 2017).
pEC50, pIC50: −log10 of the molar value. Activity calls are given as the source filed them. The calls are words filed in the database; no cut-off is given here.

What was measured:
[1] = target: T1, Cannabinoid receptor 2 (Homo sapiens, UniProt P34972); experiment: Agonist activity at human CB2 receptor expressed in CHO cells assessed as induction of Ca2+ flux after 10 mins by Fluor-4 AM dye based assay; format: functional, cell-based
[2] = target: T1, Cannabinoid receptor 2; experiment: Agonist activity at human CB2 receptor expressed in CHO cells assessed as induction of Ca2+ flux after 10 mins by Fluor-4 AM dye based assay relative to CP55940; format: functional, cell-based
[3] = target: T2, Cannabinoid receptor 1 (Homo sapiens, UniProt P21554); experiment: Agonist activity at human CB1 receptor expressed in CHO cells assessed as induction of Ca2+ flux at 10 uM after 10 mins by Fluor-4 AM dye based assay; format: cell-based
[4] = target: T3, Cannabinoid receptor 1 (CB1) (Homo sapiens, UniProt P21554); experiment: Antagonist activity at human CB1 receptor expressed in CHO cells assessed as inhibition of CP55940-induced Ca2+ flux at 10 uM preincubated for 10 mins followed by agonist addition by Fluor-4 AM dye based assay; format: cell-based; conditions: CHO cells expressing human CB1 receptor
[5] = target: T1, Cannabinoid receptor 2; experiment: Antagonist activity at human CB2 receptor expressed in CHO cells assessed as inhibition of CP55940-induced Ca2+ flux at 10 uM preincubated for 10 mins followed by agonist addition by Fluor-4 AM dye based assay; format: functional, cell-based
[6] = target: T1, Cannabinoid receptor 2; experiment: Agonist activity at human CB2 receptor expressed in CHO cells assessed as induction of Ca2+ flux at 10 uM after 10 mins by Fluor-4 AM dye based assay; format: functional, cell-based
[7] = target: T1, Cannabinoid receptor 2; experiment: Antagonist activity at human CB2 receptor expressed in CHO cells assessed as inhibition of CP55940-induced Ca2+ flux preincubated for 10 mins followed by agonist addition by Fluor-4 AM dye based assay; format: functional, cell-based
[8] = target: T3, Cannabinoid receptor 1 (CB1); experiment: Agonist activity at human CB1 receptor expressed in CHO cells assessed as induction of Ca2+ flux after 10 mins by Fluor-4 AM dye based assay relative to CP55940; format: cell-based; conditions: CHO cells expressing human CB1 receptor
[9] = target: T2, Cannabinoid receptor 1; experiment: Agonist activity at human CB1 receptor expressed in CHO cells assessed as induction of Ca2+ flux after 10 mins by Fluor-4 AM dye based assay; format: cell-based
[10] = target: T1, Cannabinoid receptor 2; experiment: Agonist activity at human N-terminal HA-tagged CB2 receptor expressed in mouse AtT20 cells by FLIPR membrane potential assay; format: cell-based
[11] = target: Cannabinoid receptor 1 (Rattus norvegicus, UniProt P20272); experiment: Agonist activity at rat CB1 receptor expressed in mouse AtT20 cells by FLIPR membrane potential assay; format: cell-based
Cannabinoid receptor 1 (Rattus norvegicus, UniProt P20272), sequence (P20272 whole entry): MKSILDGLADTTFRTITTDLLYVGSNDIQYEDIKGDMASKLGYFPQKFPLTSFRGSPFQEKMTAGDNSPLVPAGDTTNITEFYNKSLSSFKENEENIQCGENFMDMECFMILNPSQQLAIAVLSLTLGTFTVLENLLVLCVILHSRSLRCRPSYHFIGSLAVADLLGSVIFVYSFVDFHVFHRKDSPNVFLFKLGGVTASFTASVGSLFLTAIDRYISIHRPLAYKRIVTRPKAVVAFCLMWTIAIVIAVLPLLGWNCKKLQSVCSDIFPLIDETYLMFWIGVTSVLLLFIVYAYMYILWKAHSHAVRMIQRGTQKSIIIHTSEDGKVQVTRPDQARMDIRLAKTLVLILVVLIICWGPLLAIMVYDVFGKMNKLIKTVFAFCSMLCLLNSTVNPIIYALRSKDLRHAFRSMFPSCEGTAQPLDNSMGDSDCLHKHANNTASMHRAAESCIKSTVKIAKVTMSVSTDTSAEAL

T2 sequence (P21554 whole entry): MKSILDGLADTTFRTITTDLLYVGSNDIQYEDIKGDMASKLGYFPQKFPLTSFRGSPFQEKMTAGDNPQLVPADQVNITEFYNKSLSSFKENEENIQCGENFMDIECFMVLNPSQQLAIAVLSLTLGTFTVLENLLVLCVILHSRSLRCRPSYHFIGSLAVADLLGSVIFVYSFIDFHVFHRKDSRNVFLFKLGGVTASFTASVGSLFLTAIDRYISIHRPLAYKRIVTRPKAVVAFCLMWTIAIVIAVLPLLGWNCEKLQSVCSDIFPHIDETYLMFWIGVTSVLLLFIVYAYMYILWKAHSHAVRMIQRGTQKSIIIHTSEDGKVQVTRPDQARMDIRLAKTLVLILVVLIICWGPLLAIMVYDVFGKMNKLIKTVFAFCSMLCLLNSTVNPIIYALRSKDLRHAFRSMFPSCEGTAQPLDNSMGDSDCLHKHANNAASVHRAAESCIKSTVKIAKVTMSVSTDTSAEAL
T3 sequence (P21554 whole entry): as above
T1 sequence (P34972 whole entry): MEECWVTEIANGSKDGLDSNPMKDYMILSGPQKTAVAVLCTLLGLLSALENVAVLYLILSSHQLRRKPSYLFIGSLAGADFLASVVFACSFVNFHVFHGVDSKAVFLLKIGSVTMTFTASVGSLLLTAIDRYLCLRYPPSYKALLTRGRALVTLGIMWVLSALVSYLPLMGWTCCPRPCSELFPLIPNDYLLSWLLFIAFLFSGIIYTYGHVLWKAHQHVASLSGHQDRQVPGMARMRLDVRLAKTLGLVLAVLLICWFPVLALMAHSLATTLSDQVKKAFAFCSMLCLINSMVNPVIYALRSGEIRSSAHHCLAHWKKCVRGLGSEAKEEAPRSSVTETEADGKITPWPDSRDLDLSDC

| SMILES | pEC50 [1] | Emax [2] | Activity [3] [%] | inhibition at 10 min, 10 µM [4] [%] | inhibition [5] [%] | Activity [6] [%] | pIC50 [7] | Emax at 10 min [8] [%] | pEC50 [9] | pEC50 [10] | pEC50 [11] |
| --- | --- | --- | --- | --- | --- | --- | --- | --- | --- | --- | --- |
| O=C(NC12CC3CC(CC(C3)C1)C2)c1cc2ccccc2n1CCCCC(F)F | 7.04 | 60% | < 50 | < 50 | < 50 | – | – | – | – | – | – |
| N#CCCCCn1c(C(=O)NC23CC4CC(CC(C4)C2)C3)cc2ccccc21 | 7.12 | 41.7% | < 50 | < 50 | < 50 | – | – | – | – | – | – |
| O=C(O)CCCCn1c(C(=O)NC23CC4CC(CC(C4)C2)C3)cc2ccccc21 | 5.15 | 43.3% | < 50 | < 50 | < 50 | – | – | – | – | – | – |
| O=C(NC1CCCCC1)c1cc2ccccc2n1CCCCCO | 6.38 | 50% | < 50 | < 50 | < 50 | – | – | – | – | – | – |
| O=C(NC12CC3CC(CC(C3)C1)C2)c1c(F)c2ccccc2n1CCCCCO | 6.21 | 60% | < 50 | < 50 | < 50 | – | – | – | – | – | – |
| O=C(NC12CC3CC(CC(C3)C1)C2)c1cc2ccccc2n1CCCCCF | 6.85 | 53.3% | < 50 | < 50 | < 50 | – | – | – | – | – | – |
| O=C(NC1CCCC1)c1cc2ccccc2n1CCCCCO | – | – | < 50 | < 50 | < 50 | < 50 | – | – | – | – | – |
| COc1cccc2c1c(C(=O)NC13CC4CC(CC(C4)C1)C3)cn2CCN1CCOCC1 | – | – | < 50 | < 50 | < 50 | < 50 | – | – | – | – | – |
| O=C(NC12CC3CC(CC(C3)C1)C2)c1cc2ccccc2[nH]1 | 6.01 | 66.7% | < 50 | < 50 | < 50 | – | – | – | – | – | – |
| Cc1cccc2c(C(=O)NC34CC5CC(CC(C5)C3)C4)c[nH]c12 | 6.30 | 60% | < 50 | < 50 | < 50 | – | – | – | – | – | – |
| COCCCCCn1cc(C(=O)NC23CC4CC(CC(C4)C2)C3)c2ccccc21 | 7.09 | 70% | < 50 | < 50 | < 50 | – | – | – | – | – | – |
| CSc1cccc2c(C(=O)NC34CC5CC(CC(C5)C3)C4)cn(CCN3CCOCC3)c12 | < 4.00 | – | < 50 | < 50 | – | < 50 | 7.55 | – | – | – | – |
| O=C(NC12CC3CC(CC(C3)C1)C2)c1cn(CCCCCO)c2ccccc12 | 7.21 | 63.3% | – | < 50 | < 50 | – | – | 76.7 | 5.39 | – | – |
| N#CCCCn1cc(C(=O)NC23CC4CC(CC(C4)C2)C3)c2ccccc21 | 7.51 | 70% | – | < 50 | < 50 | – | – | 105 | 6.20 | – | – |
| O=C(NC12CC3CC(CC(C3)C1)C2)c1[nH]c2ccccc2c1F | 5.42 | 83.3% | < 50 | < 50 | < 50 | – | – | – | – | – | – |
| COc1cccc2c(C(=O)NC34CC5CC(CC(C5)C3)C4)cn(CCN3CCOCC3)c12 | < 4.00 | – | < 50 | < 50 | – | < 50 | 7.80 | – | – | – | – |
| O=C(NC12CC3CC(CC(C3)C1)C2)c1c(F)c2ccccc2n1CCCCO | 6.39 | 46.7% | < 50 | < 50 | < 50 | – | – | – | – | – | – |
| O=C(NC12CC3CC(CC(C3)C1)C2)c1cc2ccccc2n1CCCC(F)(F)F | 6.31 | 63.3% | < 50 | < 50 | < 50 | – | – | – | – | – | – |
| O=C(NC12CC3CC(CC(C3)C1)C2)c1c[nH]c2ccccc12 | 6.20 | 75% | < 50 | < 50 | < 50 | – | – | – | – | – | – |
| O=C(NC12CC3CC(CC(C3)C1)C2)c1cn(CC2CCOCC2)c2ccccc12 | 7.42 | 76.7% | – | < 50 | < 50 | – | – | 133 | 7.08 | – | – |
| N#CCn1cc(C(=O)NC23CC4CC(CC(C4)C2)C3)c2ccccc21 | 6.39 | 66.3% | < 50 | < 50 | < 50 | – | – | – | – | – | – |

| SMILES | pEC50 [1] | Emax [2] | Activity [3] [%] | inhibition at 10 min, 10 µM [4] [%] | inhibition [5] [%] | Activity [6] [%] | pIC50 [7] | Emax at 10 min [8] [%] | pEC50 [9] | pEC50 [10] | pEC50 [11] |
| --- | --- | --- | --- | --- | --- | --- | --- | --- | --- | --- | --- |
| C[S+]([O-])c1cccc2c(C(=O)NC34CC5CC(CC(C5)C3)C4)cn(CCN3CCOCC3)c12 (stereo unspecified) | – | – | < 50 | < 50 | < 50 | < 50 | – | – | – | – | – |
| Cc1cccc2c(C(=O)NC34CC5CC(CC(C5)C3)C4)cn(CCN3CCOCC3)c12 | – | inactive | – | < 50 | < 50 | < 50 | – | 63.3 | 5.17 | – | – |
| NCCCCCn1c(C(=O)NC23CC4CC(CC(C4)C2)C3)cc2ccccc21 | 5.07 | 93.3% | < 50 | < 50 | < 50 | – | – | – | – | – | – |
| CC(C)(C)NC(=O)c1cc2ccccc2n1CCCCCO | 6.37 | 51.7% | < 50 | < 50 | < 50 | – | – | – | – | – | – |
| O=C(NC12CC3CC(CC(C3)C1)C2)c1cc2ccccc2n1CCN1CCOC1=O | 6.66 | 66.7% | < 50 | < 50 | < 50 | – | – | – | – | – | – |
| O=C(NC12CC3CC(CC(C3)C1)C2)c1cn(CCCCO)c2ccccc12 | 6.80 | 68.3% | – | < 50 | < 50 | – | – | 58.3 | 4.89 | – | – |
| CCCCCn1cc(C(=O)C23CC4CC(CC(C4)C2)C3)c2ccccc21 | – | – | – | – | – | – | – | – | – | 7.05 to 7.54 | 7.40 to 7.46 |
| O=CCCCCn1c(C(=O)NC23CC4CC(CC(C4)C2)C3)cc2ccccc21 | 6.74 | 73.3% | < 50 | < 50 | < 50 | – | – | – | – | – | – |
| N=C(N)NCCCCCn1c(C(=O)NC23CC4CC(CC(C4)C2)C3)cc2ccccc21 | – | – | < 50 | < 50 | < 50 | < 50 | – | – | – | – | – |
| N#CCCCCn1c(C(=O)Nc2ccccc2)cc2ccccc21 | 6.70 | 48.3% | < 50 | < 50 | < 50 | – | – | – | – | – | – |
| O=C(NC12CC3CC(CC(C3)C1)C2)c1cc2ccccc2n1CCCO | 6.80 | 86.7% | < 50 | < 50 | < 50 | – | – | – | – | – | – |
| N#CCCn1cc(C(=O)NC23CC4CC(CC(C4)C2)C3)c2ccccc21 | 6.74 | 73.3% | < 50 | < 50 | < 50 | – | – | – | – | – | – |
| O=C(NC12CC3CC(CC(C3)C1)C2)c1cc2ccccc2n1CCCCCO | 7.00 | 70% | < 50 | < 50 | < 50 | – | – | – | – | – | – |
| CCCCCn1c(C(=O)NC23CC4CC(CC(C4)C2)C3)cc2ccccc21 | 6.14 | 53.3% | < 50 | < 50 | < 50 | – | – | – | – | – | – |
| O=C(NC12CC3CC(CC(C3)C1)C2)c1cc2ccccc2n1CC1CCOCC1 | 6.39 | 41.7% | < 50 | < 50 | < 50 | – | – | – | – | – | – |
| NCCCCn1c(C(=O)NC23CC4CC(CC(C4)C2)C3)cc2ccccc21 | 5.33 | 86.7% | < 50 | < 50 | < 50 | – | – | – | – | – | – |
| CCCCCn1cc(C(=O)CC23CC4CC(CC(C4)C2)C3)c2ccccc21 | – | – | – | – | – | – | – | – | – | 7.05 to 7.54 | 7.40 to 7.46 |
| COc1ccc2c(c1)c(C(=O)NC13CC4CC(CC(C4)C1)C3)cn2CCN1CCOCC1 | – | – | < 50 | < 50 | < 50 | < 50 | – | – | – | – | – |
| N#CCCn1c(C(=O)NC23CC4CC(CC(C4)C2)C3)cc2ccccc21 | 6.82 | 93.3% | < 50 | < 50 | < 50 | – | – | – | – | – | – |
| N#CCCCn1c(C(=O)NC23CC4CC(CC(C4)C2)C3)cc2ccccc21 | 6.57 | 61.7% | < 50 | < 50 | < 50 | – | – | – | – | – | – |
| O=C(NC12CC3CC(CC(C3)C1)C2)c1cn(CCN2CCOCC2)c2ccccc12 | 7.23 | 56.7% | – | < 50 | < 50 | – | < 4.00 | 75 | 5.48 | – | – |
